Experimental findings from ChEMBL document CHEMBL5543144, “Discovery of a Novel Potent Tetrazole Antifungal Candidate with High Selectivity and Broad Spectrum” (J Med Chem, 2024) are described below.

Data set [1] relates to [Candida] auris. Nature of the data set: Antifungal activity against fluconazole resistant Candida auris 888 assessed as inhibition of fungal growth incubated for 48 hrs by CLSI protocol based microbroth dilution method. Format: functional. The conditions noted are these: Candidozyma auris. A general note: In broth dilution the organism is exposed to a series of concentrations in liquid medium.

The test system of data set [2] is Nakaseomyces glabratus. Briefly: Antifungal activity against Candida glabrata 537 assessed as inhibition of fungal growth incubated for 48 hrs by CLSI protocol based microbroth dilution method. The format is functional.
For data set [3], the system named is Candida albicans. Nature of the data set: Antifungal activity against Candida albicans SC5314 assessed as inhibition of fungal growth incubated for 24 hrs by CLSI protocol based microbroth dilution method. Format: functional.
In data set [4] the test system is [Candida] auris. Nature of the data set: Antifungal activity against fluconazole resistant Candida auris 789 assessed as inhibition of fungal growth incubated for 48 hrs by CLSI protocol based microbroth dilution method. Format: functional. The conditions noted are these: Candidozyma auris.
Data set [5] deals with Cryptococcus neoformans. Nature of the data set: Antifungal activity against Cryptococcus neoformans H99 assessed as inhibition of fungal growth incubated for 72 hrs by CLSI protocol based microbroth dilution method. The format is functional.
For data set [6], the system named is [Candida] auris. Briefly: Antifungal activity against fluconazole resistant Candida auris 791 assessed as inhibition of fungal growth incubated for 48 hrs by CLSI protocol based microbroth dilution method. The format is functional. The conditions noted are these: Candidozyma auris.
Data set [7] has as its system Candida tropicalis. Nature of the data set: Antifungal activity against Candida tropicalis 2718 assessed as inhibition of fungal growth incubated for 24 hrs by CLSI protocol based microbroth dilution method. The format is functional.
Data set [8] has as its system [Candida] auris. Nature of the data set: Antifungal activity against fluconazole resistant Candida auris D12 assessed as inhibition of fungal growth incubated for 48 hrs by CLSI protocol based microbroth dilution method. The conditions noted are these: Candidozyma auris. The format is functional.
Data set [9] has as its system Aspergillus fumigatus. Nature of the data set: Antifungal activity against Aspergillus fumigatus 7544 assessed as inhibition of fungal growth incubated for 48 hrs by CLSI protocol based microbroth dilution method. Format: functional.
The subject of data set [10] is [Candida] auris. Nature of the data set: Antifungal activity against fluconazole resistant Candida auris BS12372 assessed as inhibition of fungal growth incubated for 48 hrs by CLSI protocol based microbroth dilution method. Format: functional. The conditions noted are these: Candidozyma auris.
The subject of data set [11] is [Candida] auris. Nature of the data set: Antifungal activity against fluconazole resistant Candida auris 887 assessed as inhibition of fungal growth incubated for 48 hrs by CLSI protocol based microbroth dilution method. Format: functional. The conditions noted are these: Candidozyma auris.
Data set [12] relates to Candida parapsilosis. Briefly: Antifungal activity against Candida parapsilosis 22019 assessed as inhibition of fungal growth incubated for 24 hrs by CLSI protocol based microbroth dilution method. The conditions noted are these: Lodderomyces parapsilosis. Format: functional.
The subject of data set [13] is Pichia kudriavzevii. Briefly: Antifungal activity against Candida krusei 4946 assessed as inhibition of fungal growth incubated for 24 hrs by CLSI protocol based microbroth dilution method. Format: functional.
Data set [14] deals with Cryptococcus neoformans. Briefly: Antifungal activity against Cryptococcus neoformans H99 assessed as inhibition of fungal growth at 0.125 ug/ml incubated for 48 hrs by plate reader analysis. The format is functional, organism-based. The conditions noted are these: dose 0.125 µg/ml.
Data set [15] has as its system Candida albicans. Nature of the data set: Antifungal activity against Candida albicans SC5314 assessed as inhibition of fungal growth at 0.0156 ug/ml incubated for 24 hrs by plate reader analysis. Format: functional, organism-based. The conditions noted are these: dose 0.0156 µg/ml.
Data set [16] in a line: Hemolytic activity in rabbit RBC assessed as hemolysis at 4 ug/ml incubated for 1 hrs by absorbance based assay relative to control. Format: toxicity, cell-based, Oryctolagus cuniculus, Erythrocyte. The conditions noted are these: rabbit red blood cells, at 4 µg/mL, read-out: Activity.
Data set [17] relates to Pichia kudriavzevii. Nature of the data set: Antifungal activity against Candida krusei 4946 assessed as inhibition of fungal growth at 0.125 ug/ml incubated for 24 hrs by plate reader analysis. The format is functional, organism-based. The conditions noted are these: dose 0.125 µg/ml.

SMILES strings stand for the structures. ≈ marks a conversion by molar mass, not a printed value. Calls of active or inactive are those of the source. The calls are words filed in the database; no cut-off is given here.

As for `C[C@@H](n1cnc2cc(Cl)ccc2c1=O)[C@](O)(Cn1cnnn1)c1ccc(F)cc1F`, the MIC50 – broadly, an inhibitory concentration at the 50% level, which refers to growth in some studies and to a panel of isolates in others – in [1] is 16 µg/mL (≈ 37 µM); in data set [2], 0.031 µg/mL (≈ 0.0716 µM); in data set [3], below 0.008 µg/mL; in data set [4], 16 µg/mL (≈ 37 µM); in data set [5], 2 µg/mL (≈ 4.62 µM); in data set [6], 32 µg/mL (≈ 73.9 µM). Besides, the MIC50 was below 0.008 µg/mL in data set [7]; 8 µg/mL (≈ 18.5 µM) in data set [8]; 8 µg/mL (≈ 18.5 µM) in data set [9]; 8 µg/mL (≈ 18.5 µM) in data set [10]; 32 µg/mL (≈ 73.9 µM) in data set [11]; 0.063 µg/mL (≈ 0.146 µM) in data set [12]. Besides, the MIC50 in data set [13] amounted to 0.25 µg/mL (≈ 0.578 µM).

For the compound `C[C@@H](n1ncc2cc(Cl)ccc2c1=O)[C@](O)(Cn1cncn1)c1ccc(F)cc1F`, the MIC50 was 1 µg/mL (≈ 2.32 µM) in [1]; below 0.008 µg/mL in [2]; below 0.008 µg/mL in data set [3]; 2 µg/mL (≈ 4.63 µM) in data set [4]; below 0.008 µg/mL in data set [5]; 1 µg/mL (≈ 2.32 µM) in data set [6]. Moreover, the MIC50 in [7] was below 0.008 µg/mL; in [8], 0.5 µg/mL (≈ 1.16 µM); in [9], 0.25 µg/mL (≈ 0.579 µM); in data set [10], 0.5 µg/mL (≈ 1.16 µM); in [11], 1 µg/mL (≈ 2.32 µM); in [12], below 0.008 µg/mL. The MIC50 in data set [13] was 0.125 µg/mL (≈ 0.289 µM). For the same compound, the outcome in data set [14] and in data set [15] was Active.

For the compound `C[C@@H]1[C@H](O)[C@@H](C)/C=C/C=C/C=C/C=C/C=C/C=C/C=C/[C@H](O[C@@H]2O[C@H](C)[C@@H](O)[C@H](N)[C@@H]2O)C[C@@H]2O[C@](O)(C[C@@H](O)C[C@@H](O)[C@H](O)CC[C@@H](O)C[C@@H](O)CC(=O)O[C@H]1C)C[C@H](O)[C@H]2C(=O)O` [AMPHOTERICIN B], the MIC50 in data set [1] amounted to 2 µg/mL (≈ 2.16 µM); in data set [4] it was 2 µg/mL (≈ 2.16 µM); in data set [6], 4 µg/mL (≈ 4.33 µM); in data set [8] it was 4 µg/mL (≈ 4.33 µM); in data set [10], 2 µg/mL (≈ 2.16 µM); in data set [11], 2 µg/mL (≈ 2.16 µM). In addition, the hemolysis at 1 h, 4 ug/ml in data set [16] was above 50%.

On to `CC[C@@H]([C@H](C)O)n1ncn(-c2ccc(N3CCN(c4ccc(OC[C@@H]5CO[C@@](Cn6cncn6)(c6ccc(F)cc6F)C5)cc4)CC3)cc2)c1=O` [POSACONAZOLE], for which the MIC50 in [1] is 8 µg/mL (≈ 11.4 µM); in data set [2] it was 0.5 µg/mL (≈ 0.713 µM); in [3] it was 0.016 µg/mL (≈ 0.0228 µM); in [4], 16 µg/mL (≈ 22.8 µM); in data set [5], 0.063 µg/mL (≈ 0.0899 µM); in data set [6], 2 µg/mL (≈ 2.85 µM). For the same compound, the MIC50 was below 0.008 µg/mL in [7]; 0.5 µg/mL (≈ 0.713 µM) in data set [8]; 0.25 µg/mL (≈ 0.357 µM) in data set [9]; 1 µg/mL (≈ 1.43 µM) in data set [10]; 16 µg/mL (≈ 22.8 µM) in data set [11]; 0.25 µg/mL (≈ 0.357 µM) in data set [12]. In addition, the MIC50 in data set [13] was found to be 0.5 µg/mL (≈ 0.713 µM).

Turning to `C[C@@H](n1ccc2cc(Cl)ccc2c1=O)[C@](O)(Cn1cncn1)c1ccc(F)cc1F`, the MIC50 in data set [1] is 0.25 µg/mL (≈ 0.58 µM); in [2], below 0.008 µg/mL; in data set [3] it was below 0.008 µg/mL; in data set [4] it was 0.5 µg/mL (≈ 1.16 µM); in data set [5], below 0.008 µg/mL; in [6], 0.5 µg/mL (≈ 1.16 µM). Also, the MIC50 in [7] was below 0.008 µg/mL; in [8], 0.25 µg/mL (≈ 0.58 µM); in [9] it was 0.25 µg/mL (≈ 0.58 µM); in data set [10], 0.25 µg/mL (≈ 0.58 µM); in data set [11], 0.25 µg/mL (≈ 0.58 µM); in [12], below 0.008 µg/mL. In addition, the MIC50 in [13] came to 0.063 µg/mL (≈ 0.146 µM). The result in [14], in data set [17] and in data set [15] was Active.
